From US20250171404A1, “PCNA INHIBITORS AND USES THEREOF” (CITY OF HOPE, priority 2022, published 2025)

Key:
[1] = tested on: SH-SY5Y and SK-N-BE(2)c; experiment: Cell cycle analysis (PI, flow cytometry), cancer cells; assay type: cell-based, human; details: 500 nM
Method: FIGS. 3A-3D. Therapeutic properties of AOH1996. FIG. 3A: Normal cells (7SM0032) or cancer cells (SH-SY5Y and SK-N-BE(2)c) cells were fixed, stained with PI, and analyzed by flow cytometry following treatment with 500 nM AOH1996 for the indicated time. FIG. 3B: SK-N-DZ neuroblastoma cells and nonmalignant 7SM0032 stem cells were incubated with 500 nM AOH1996 for 24 h. Then, after being fixed on slides, cell apoptosis were analyzed by a TUNEL assay. Left: TMR fluorophore attached to the free ends of DNA indicates cells undergoing apoptosis. DAPI stained nuclei also shown. Right: Average abundance ±S.D. of apoptotic 7SM0032 (black histogram) and SK-N-DZ (grey histogram) cells relative to the total number of cells are shown in 5 randomly selected fields. FIG. 3C: Human SK-N-DZ neuroblastoma cells were treated with or without the indicated concentrations of cisplatin in the absence or presence of 500 nM of AOH1996 for 18 hours. […] The relative number of colonies determined in triplicates for each treatment condition were averaged and graphed ±SDs (*, P<0.01). […] Cell growth was measured as the percentage of cell confluence by imaging every 6 h for a total of 48 h.
Cell Cycle Analysis. […] PI fluorescence intensity of the cells was measured by flow cytometry and the data was analyzed using the FlowJo program.

[2] = target: T1, PCNA interaction with RPB1 (Homo sapiens, UniProt P12004); experiment: PCNA interaction with RPB1 (immunoprecipitation, western blotting); assay type: cell-based; details: SK-N-AS
T1 construct: expressed in transfected cells; host or cells: SK-N-AS (FLAG-RPB1 exogenous; PCNA endogenous)
Method: FIGS. 5A-5E. Modulation of PCNA interaction with RNA polymerase II. FIG. 5A: Chromatin-bound (CB) proteins were fractioned from HEK293T cells expressing FLAG-tagged PCNA after the cells were treated with or without 500 nM AOH1996. Proteins in complex with FLAG-PCNA were immune-precipitated and analyzed by mass spectrometry. Shown are numbers of proteins whose abundances were altered (grey) or unaltered (black) by more than 2-fold by AOH1996 treatment. FIG. 5B: SK-N-AS cells exogenously expressing a FLAG-tagged RPB1 gene were fractioned before and after being treated with 500 nM AOH1996 overnight. PCNA in complex with chromatin-bound (CB) FLAG-RBP1 were analyzed by western blotting. FIG. 5C: Human SK-N-AS cells were treated with UV in the presence or absence of AOH1996 (AOH) or R9-caPep (caPep). Whole cell extracts were analyzed by western blotting. FIG. 5D: Cells exogenously expressing FLAG-tagged wildtype RPB1 or FLAG-tagged APIM-mutant RPB1 gene were fractioned. PCNA in complex with chromatin-bound (CB) FLAG-RBP1 were analyzed by western blotting. FIG. 5E: HEK293T cells were transiently transfected with a FLAG-tagged wildtype RPB1 (APIM WT) gene or mutant RPB1 gene (APIM mutant). The intracellular MCM7 and RBP1 (both the hypo-phosphorylated RNAPIIa and hyper-phosphorylated RNAPIIo forms) were analyzed by western blot after cells were treated by the indicated agents and/or UV.
Modulating PCNA interaction with transcription machinery.
Cell fractionation and immunoprecipitation. Cells were fractionated as previously described (Li et al., 2018). Briefly, intact nuclei isolated following osmotic lysis were homogenized using a 21 G needle. Chromatin was pelleted by centrifugation and incubated overnight at 4° C. with benzonase in two volumes of nuclease buffer (20 mM HEPES pH 7.5, 1.5 mM MgCl2, 1 mM EDTA, 150 mM KCl, 10% glycerol, 0.5 U μl-1 benzonase). The resulting supernatant was collected as the CB fraction. Alternatively, we sequentially incubated the chromatin pellet with RNase A and benzonase and collected the supernatants after each digestion as the CB:RNA+ and CB:RNA− fractions, respectively (Li et al., 2018).

## COc1cccc(Oc2ccccc2NC(=O)CNC(=O)c2cccc3ccccc23)c1 [AOH1996, N-(2-((2-(3-methoxyphenoxy)phenyl)amino)-2-oxoethyl)-1-naphthamide]
[1]
  change in cell-cycle profile: G2/M and/or S phase arrest in cancer cells
[2]; chromatin-bound
  PCNA interaction with RPB1: enhanced interaction between PCNA and RPB1
[2]; whole cell extracts
  RPB1 levels: depleted RPB1 in cancer cells
